pIC50: −log10 of the molar value. Where “and” joins values, the source holds several entries; their conditions need not be identical. Equal entries are not always repeated. Where two headings read alike, the source gives them in different places.
Columns and labels:
mTOR pathway = assay: pmTOR, pAkt, pERK, p4E-BP1 and pp70S6K levels in PC-12 cells; format: cell-based, rat
[1] = Brain tissue concentrations after administration to male Wistar rats
[2] = tested on: mTOR and related proteins; assay: Western blot of phosphorylated mTOR and related proteins in rat brain; details: 20 mg·kg^−1 intravenous; for Increase in phosphorylation of mTOR and its downstream targets: rat pre-frontal cortex, 60-min post-administration, p<0.05
α3β4-nAChR = details: cited from earlier work; for pIC50: α3β4-nAChR
[3] = tested on: monomeric serine racemase (m-SR); assay: Expression of monomeric serine racemase protein in PC-12 cells; format: cell-based, rat; details: for Concentration of maximum increase in m-SR protein expression: gradual decline at higher concentrations
anesthesia = details: cited from earlier work
[4] = tested on: monomeric serine racemase (m-SR); details: PC-12 cells; compound alone; cited from earlier work
NMDAR = details: cited from earlier work
α7-nAChR [5] = details: cited from earlier work
[6] = tested on: mTOR and related proteins; details: cited from earlier work
[7] = tested on: (S)-nicotine-induced currents in PC-12 cells; details: cited from earlier work
α7-nAChR [8] = details: cited from earlier work; remark: listed apart in the source
[9] = after (R,S)-norketamine 20 mg·kg^−1 intravenous, 10 min
[10] = after (R,S)-norketamine 20 mg·kg^−1 intravenous, 20 min
[11] = after (R,S)-norketamine 20 mg·kg^−1 intravenous, 60 min
[12] = after (R,S)-norketamine 20 mg·kg^−1 intravenous, 240 min
[13] = time-dependent, significant in the 20- and 60-min samples
[14] = after (R,S)-ketamine 40 mg·kg^−1 intraperitoneal, 10 min
[15] = after (R,S)-ketamine 40 mg·kg^−1 intraperitoneal, 30 min
[16] = after (R,S)-ketamine 40 mg·kg^−1 intraperitoneal, 60 min
[17] = after (R,S)-ketamine 40 mg·kg^−1 intraperitoneal, 240 min

## NC1(c2ccccc2Cl)CCCCC1=O (racemic) [(R,S)-norketamine]
mTOR pathway
  Levels of phosphorylated mTOR, 4E-BP1, p70S6K, ERK1/2 and Akt and of m-SR protein: significant increases
mTOR pathway; 60 min
  Concentration above which the increase lost significance: greater than 250 nM
[1]; [9]
  Rat brain tissue conc. of (2S,6S;2R,6R)-HNK: 16 ± 3 µM/g
  Rat brain tissue conc. of (R,S)-norKet: 88 ± 8 µM/g
[1]; [10]
  Rat brain tissue conc. of (2S,6S;2R,6R)-HNK: 16 ± 3 µM/g
  Rat brain tissue conc. of (R,S)-norKet: 51 ± 4 µM/g
[1]; [11]
  Rat brain tissue conc. of (2S,6S;2R,6R)-HNK: 8.9 ± 0.7 µM/g
  Rat brain tissue conc. of (R,S)-norKet: 20 ± 7 µM/g
[1]; [12]
  Rat brain tissue conc. of (2S,6S;2R,6R)-HNK: 2.1 ± 0.4 µM/g
  Rat brain tissue conc. of (R,S)-norKet: 1.0 ± 0.1 µM/g
[2]
  Relative pAkt levels: not impacted
  Increase in phosphorylation of mTOR and its downstream targets: > 25 fold
[2]; 20- and 60-min samples
  Levels of phosphorylated forms of mTOR, pp70S6K and p4E-BP1: significant increases
[2]; 20-min sample
  Increase in pmTOR levels: 15 fold
[2]; 60-min sample
  Increase in pmTOR levels: 25 fold
[2]; significant
  Increase in pERK level: ~ 6 fold
α3β4-nAChR
  pIC50: 5.05
[3]; 10nM
  Increase in expression of serine racemase: ~ 2 fold
[3]; 36 h
  Concentration of maximum increase in m-SR protein expression: 10 nM
anesthesia; rat
  Anesthetic activity: produce anesthesia

## CN1CCC[C@H]1c1cccnc1 [(S)-nicotine]
mTOR pathway; (S)-nicotine alone, 2 μM, 1 h
  Effect on the phosphorylation of pmTOR, p4E-BP1, pp70S6K, pERK1/2 and pAkt: no effect
[4]
  Effect on expression of m-SR: no effect

## N[C@]1(c2ccccc2Cl)CCC[C@H](O)C1=O
mTOR pathway
  Levels of phosphorylated mTOR, 4E-BP1, p70S6K, ERK1/2 and Akt and of m-SR protein: significant increases
mTOR pathway; 60 min
  Concentration above which pmTOR increase was markedly reduced: greater than 1 nM
[2]; increased in the 20- and 60-min samples
  Relative levels of pERK1/2 and pAkt: did not reach statistical significance
[2]; [13]
  Increase in p4E-BP1: ~ 2.0 fold
  Increase in pmTOR: ~ 2.0 fold
  Increase in pp70S6K: ~ 2.5 fold
[2]
  Increase in phosphorylation of mTOR and its downstream targets: > 2 fold
NMDAR
  Activity at the NMDAR: not active
α3β4-nAChR
  Activity at the α3β4-nAChR: not active
  pIC50: < 3.52
[3]; 0.05nM
  Increase in expression of serine racemase: ~ 2 fold
[3]; 36 h
  Concentration of maximum increase in m-SR protein expression: 0.05 nM
α7-nAChR [5]
  pIC50: > 7.00

## CCN1C[C@]2(COC(=O)c3ccccc3N3C(=O)C[C@H](C)C3=O)CC[C@H](OC)[C@@]34[C@@H]5C[C@H]6[C@H](OC)[C@@H]5[C@](O)(C[C@@H]6OC)[C@@](O)([C@@H](OC)[C@H]23)[C@@H]14 [methyllycaconitine]
mTOR pathway
  Levels of phosphorylated mTOR, 4E-BP1, p70S6K, ERK1/2 and Akt and of m-SR protein: significant increases
[4]
  Effect on expression of m-SR: significantly increases

## N[C@@]1(c2ccccc2Cl)CCC[C@@H](O)C1=O [(2S,6S;2R,6R)-hydroxynorketamine]
anesthesia; rat
  Anesthetic activity: no anesthetic effect
anesthesia; rat; ref 9;2R,6R)-Hydroxynorketamine
  Anesthetic activity: lacks anesthetic activity

## N[C@@]1(c2ccccc2Cl)CCC[C@@H](O)C1=O [(2R,6R)-hydroxynorketamine]
NMDAR
  Activity at the NMDAR: not active
α3β4-nAChR
  Activity at the α3β4-nAChR: not active
α7-nAChR [5]
  pIC50: > 7.00

## CNC1(c2ccccc2Cl)CCCCC1=O (racemic) [(R,S)-ketamine]
mTOR pathway
  Concentration required to produce the maximum effect on the mTOR pathway and m-SR expression: 600 nM
  Levels of phosphorylated mTOR, 4E-BP1, p70S6K, ERK1/2 and Akt and of m-SR protein: significant increases
mTOR pathway; 60 min
  Concentration above which the increase lost significance: greater than 2000 nM
  Concentrations eliciting significant increases in protein phosphorylation: 400 to 600 nM
[1]; [14]
  Rat brain tissue conc. of (2S,6S;2R,6R)-HNK: 30 ± 5 µM/g
  Rat brain tissue conc. of (R,S)-Ket: 137 ± 6 µM/g
  Rat brain tissue conc. of (R,S)-norKet: 21 ± 8 µM/g
[1]; [15]
  Rat brain tissue conc. of (2S,6S;2R,6R)-HNK: 21 ± 8 µM/g
  Rat brain tissue conc. of (R,S)-Ket: 52 ± 44 µM/g
  Rat brain tissue conc. of (R,S)-norKet: 34 ± 6 µM/g
[1]; [16]
  Rat brain tissue conc. of (2S,6S;2R,6R)-HNK: 25 ± 5 µM/g
  Rat brain tissue conc. of (R,S)-Ket: 19 ± 9 µM/g
  Rat brain tissue conc. of (R,S)-norKet: 16 ± 4 µM/g
[1]; [17]
  Rat brain tissue conc. of (2S,6S;2R,6R)-HNK: 11 ± 5 µM/g
  Rat brain tissue conc. of (R,S)-Ket: 0.6 ± 0.1 µM/g
  Rat brain tissue conc. of (R,S)-norKet: 1.3 ± 0.3 µM/g
[6]; Wistar rats, peaked at 30–60 min post-administration
  Increase in the phosphorylated forms of mTOR pathway proteins: ~ 1.5 fold
[6]
  Increase in pERK: 1.5 fold
α3β4-nAChR
  pIC50: 5.52
[3]; 1000nM
  Increase in expression of serine racemase: ~ 2 fold
[3]; 36 h
  Concentrations with significant increase in m-SR expression (ANOVA): 600 nM and 1000 nM
  Concentration of maximum increase in m-SR protein expression: 600 nM
[7]
  pIC50: 5.30
anesthesia; rat
  Anesthetic activity: produce anesthesia
α7-nAChR [8]
  pIC50: 4.70
